Legend:
bedstraw = assay: Test B pre/postemergence bedstraw; format: in vivo, Galium aparine
In short: (§1)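 Test chemicals in a non-phytotoxic solvent mixture with surfactant were sprayed preemergence onto planted seeds and postemergence onto plants 2 to 18 cm tall (1- to 4-leaf stage). After twelve to sixteen days in a greenhouse, injury was visually rated against untreated controls from 0 (no effect) to 10 (complete control).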

blackgrass = assay: Test B pre/postemergence blackgrass; format: in vivo, Alopecurus myosuroides
In short: as §1

surinam grass = assay: Test B pre/postemergence surinam grass; format: in vivo, Brachiaria decumbens
In short: as §1

cocklebur = assay: Test B pre/postemergence cocklebur; format: in vivo, Xanthium strumarium
In short: as §1

corn = assay: Test B pre/postemergence corn; format: in vivo, Zea mays
In short: as §1

crabgrass = assay: Test B pre/postemergence crabgrass; format: in vivo, Digitaria sanguinalis
In short: as §1

giant foxtail = assay: Test B pre/postemergence giant foxtail; format: in vivo, Setaria faberii
In short: as §1

morningglory = assay: Test B pre/postemergence morningglory; format: in vivo, Ipomoea hederacea
In short: as §1

pigweed = assay: Test B pre/postemergence pigweed; format: in vivo, Amaranthus retroflexus
In short: as §1

rape = assay: Test B pre/postemergence rape; format: in vivo, Brassica napus
In short: as §1

soybean = assay: Test B pre/postemergence soybean; format: in vivo, Glycine max
In short: as §1

sugar beet = assay: Test B pre/postemergence sugar beet; format: in vivo, Beta vulgaris
In short: as §1

velvetleaf = assay: Test B pre/postemergence velvetleaf; format: in vivo, Abutilon theophrasti
In short: as §1

wheat = assay: Test B pre/postemergence wheat; format: in vivo, Triticum aestivum
In short: as §1

wild oat = assay: Test B pre/postemergence wild oat; format: in vivo, Avena fatua
In short: as §1

purple nutsedge = assay: Test B pre/postemergence purple nutsedge; format: in vivo, Cyperus rotundus
In short: as §1

[1] = Postemergence, Rate 125 g/ha, scale of 0 to 10 where 0 is no effect and 10 is complete control
[2] = Preemergence, Rate 62 g/ha, scale 0 to 10 (0 no effect, 10 complete control)
[3] = Preemergence, Rate 125 g/ha, 0 is no effect, 10 is complete control
[4] = Preemergence, Rate 250 g/ha, scale 0 to 10, 0 is no effect, 10 is complete control
[5] = Preemergence, Rate 500 g/ha, scale 0 to 10 (0 no effect, 10 complete control)
[6] = Rate 62 g/ha, Postemergence, scale of 0 to 10 where 0 is no effect and 10 is complete control
[7] = Rate 250 g/ha, Postemergence, scale 0 to 10, 0 is no effect, 10 is complete control
[8] = Rate 500 g/ha, Postemergence, scale 0 to 10

CC(C)N(C(=O)n1oc(=O)n(C(C)c2ccccc2)c1=O)c1ccc(Cl)cc1 (centres unmarked) [Compound 133]
Bedstraw plant response rating (bedstraw; [1]): 4 | Bedstraw plant response rating (bedstraw; [2]): 0 | Bedstraw plant response rating (0 to 10 scale) (bedstraw; [3]): 0 | Bedstraw plant response rating (bedstraw; [4]): 0 | Bedstraw plant response rating (bedstraw; [5]): 0 | Bedstraw plant response rating (bedstraw; [6]): 0 | Plant response rating, Bedstraw (bedstraw; [7]): 7 | Bedstraw plant response rating (bedstraw; Rate 500 g/ha, Postemergence, scale 0 to 10, 0 no effect, 10 complete control): 7 | Blackgrass plant response rating (blackgrass; [1]): 2 | Blackgrass plant response rating (blackgrass; [2]): 3 | Blackgrass plant response rating (0 to 10 scale) (blackgrass; [3]): 3 | Blackgrass plant response rating (blackgrass; [4]): 3 | Blackgrass plant response rating (blackgrass; [5]): 5 | Blackgrass plant response rating (blackgrass; [6]): 0 | Plant response rating, Blackgrass (blackgrass; [7]): 2 | Blackgrass plant response rating (blackgrass; [8]): 4 | B. signalgrass plant response rating (surinam grass; [1]): 0 | B. signalgrass plant response rating (surinam grass; [2]): 0 | B. signalgrass plant response rating (0 to 10 scale) (surinam grass; [3]): 5 | B. signalgrass plant response rating (surinam grass; [4]): 5 | B. signalgrass plant response rating (surinam grass; [5]): 7 | B. signalgrass plant response rating (surinam grass; [6]): 0 | Plant response rating, B. signalgrass (surinam grass; [7]): 2 | B. signalgrass plant response rating (surinam grass; Rate 500 g/ha, Postemergence, scale of 0 to 10 where 0 is no effect and 10 is complete control): 2 | Cocklebur plant response rating (cocklebur; [1]): 2 | Cocklebur plant response rating (cocklebur; [2]): 0 | Cocklebur plant response rating (0 to 10 scale) (cocklebur; [3]): 0 | Cocklebur plant response rating (cocklebur; [4]): 0 | Cocklebur plant response rating (cocklebur; [5]): 2 | Cocklebur plant response rating (cocklebur; [6]): 2 | Plant response rating, Cocklebur (cocklebur; [7]): 2 | Cocklebur plant response rating (cocklebur; [8]): 3 | Corn plant response rating (corn; [1]): 0 | Corn plant response rating (corn; [2]): 0 | Corn plant response rating (0 to 10 scale) (corn; [3]): 0 | Corn plant response rating (corn; [4]): 0 | Corn plant response rating (corn; [5]): 0 | Corn plant response rating (corn; [6]): 0 | Plant response rating, Corn (corn; [7]): 0 | Corn plant response rating (corn; [8]): 0 | Crabgrass plant response rating (crabgrass; [1]): 2 | Crabgrass plant response rating (crabgrass; [2]): 1 | Crabgrass plant response rating (0 to 10 scale) (crabgrass; [3]): 3 | Crabgrass plant response rating (crabgrass; [4]): 5 | Crabgrass plant response rating (crabgrass; [5]): 5 | Crabgrass plant response rating (crabgrass; [6]): 0 | Plant response rating, Crabgrass (crabgrass; [7]): 4 | Crabgrass plant response rating (crabgrass; [8]): 4 | Giant foxtail plant response rating (giant foxtail; [1]): 2 | Giant foxtail plant response rating (giant foxtail; [2]): 3 | Giant foxtail plant response rating (0 to 10 scale) (giant foxtail; [3]): 7 | Giant foxtail plant response rating (giant foxtail; [4]): 9 | Giant foxtail plant response rating (giant foxtail; [5]): 10 | Giant foxtail plant response rating (giant foxtail; [6]): 0 | Plant response rating, Giant foxtail (giant foxtail; [7]): 3 | Giant foxtail plant response rating (giant foxtail; [8]): 4 | Morningglory plant response rating (morningglory; [1]): 3 | Morningglory plant response rating (morningglory; [2]): 0 | Morningglory plant response rating (0 to 10 scale) (morningglory; [3]): 0 | Morningglory plant response rating (morningglory; [4]): 0 | Morningglory plant response rating (morningglory; [5]): 0 | Morningglory plant response rating (morningglory; [6]): 2 | Plant response rating, Morningglory (morningglory; [7]): 4 | Morningglory plant response rating (morningglory; [8]): 8 | Redroot pigweed plant response rating (pigweed; [1]): 0 | Redroot pigweed plant response rating (pigweed; [2]): 0 | Redroot pigweed plant response rating (0 to 10 scale) (pigweed; [3]): 0 | Redroot pigweed plant response rating (pigweed; [4]): 0 | Redroot pigweed plant response rating (pigweed; [5]): 3 | Redroot pigweed plant response rating (pigweed; [6]): 0 | Plant response rating, Redroot pigweed (pigweed; [7]): 0 | Redroot pigweed plant response rating (pigweed; [8]): 2 | Rape plant response rating (rape; [1]): 0 | Rape plant response rating (rape; [2]): 0 | Rape plant response rating (0 to 10 scale) (rape; [3]): 0 | Rape plant response rating (rape; [4]): 0 | Rape plant response rating (rape; [5]): 2 | Rape plant response rating (rape; [6]): 0 | Plant response rating, Rape (rape; [7]): 0 | Rape plant response rating (rape; [8]): 0 | Soybean plant response rating (soybean; [1]): 3 | Soybean plant response rating (soybean; [2]): 0 | Soybean plant response rating (0 to 10 scale) (soybean; [3]): 0 | Soybean plant response rating (soybean; [4]): 0 | Soybean plant response rating (soybean; [5]): 0 | Soybean plant response rating (soybean; [6]): 1 | Plant response rating, Soybean (soybean; [7]): 3 | Soybean plant response rating (soybean; [8]): 3 | Sugarbeets plant response rating (sugar beet; [1]): 0 | Sugarbeets plant response rating (sugar beet; [2]): 0 | Sugarbeets plant response rating (0 to 10 scale) (sugar beet; [3]): 2 | Sugarbeets plant response rating (sugar beet; [4]): 3 | Sugarbeets plant response rating (sugar beet; [5]): 5 | Sugarbeets plant response rating (sugar beet; [6]): 0 | Plant response rating, Sugarbeets (sugar beet; [7]): 0 | Sugarbeets plant response rating (sugar beet; [8]): 2 | Velvetleaf plant response rating (velvetleaf; [1]): 0 | Velvetleaf plant response rating (velvetleaf; [2]): 0 | Velvetleaf plant response rating (0 to 10 scale) (velvetleaf; [3]): 0 | Velvetleaf plant response rating (velvetleaf; [4]): 2 | Velvetleaf plant response rating (velvetleaf; [5]): 2 | Velvetleaf plant response rating (velvetleaf; [6]): 0 | Plant response rating, Velvetleaf (velvetleaf; [7]): 2 | Velvetleaf plant response rating (velvetleaf; [8]): 5 | Wheat plant response rating (wheat; [1]): 0 | Wheat plant response rating (wheat; [2]): 0 | Wheat plant response rating (0 to 10 scale) (wheat; [3]): 0 | Wheat plant response rating (wheat; [4]): 0 | Wheat plant response rating (wheat; [5]): 0 | Wheat plant response rating (wheat; [6]): 0 | Plant response rating, Wheat (wheat; [7]): 0 | Wheat plant response rating (wheat; [8]): 2 | Wild oats plant response rating (wild oat; [1]): 0 | Wild oats plant response rating (wild oat; [2]): 0 | Wild oats plant response rating (0 to 10 scale) (wild oat; [3]): 2 | Wild oats plant response rating (wild oat; [4]): 2 | Wild oats plant response rating (wild oat; [5]): 4 | Wild oats plant response rating (wild oat; [6]): 0 | Plant response rating, Wild oats (wild oat; [7]): 0 | Wild oats plant response rating (wild oat; [8]): 0 | Nutsedge plant response rating (purple nutsedge; [1]): 0 | Nutsedge plant response rating (purple nutsedge; [2]): 0 | Nutsedge plant response rating (0 to 10 scale) (purple nutsedge; [3]): 0 | Nutsedge plant response rating (purple nutsedge; [4]): 0 | Nutsedge plant response rating (purple nutsedge; [5]): 0 | Nutsedge plant response rating (purple nutsedge; [6]): 0 | Plant response rating, Nutsedge (purple nutsedge; [7]): 0 | Nutsedge plant response rating (purple nutsedge; [8]): 0
